Measured values from US5883121A, “Epoxysuccinamide derivative or salt thereof, and medicine comprising the same” (Taiho Pharmaceutical Co., Ltd., priority 1995, dated 1999).
Where a name gives a salt, the structure may show the parent alone.

Assays:
Type in all cases: biochemical
[1] = target: T1, cathepsin B (Rattus norvegicus, UniProt P00787); assay: Determination of inhibition rate against cathepsin B; conditions: cathepsin B from rat liver; substrate Z-Arg-Arg-MCA; pH 5.5; 30° C; 10 minutes
T1 construct: extracted from a rat liver and completely purified; from tissue; host or cells: rat liver
Procedure: (§1) Determination of inhibition rate against cathepsin L, B and H […]
(§2) Each cathepsin was diluted with a diluent (0.1% Brij 35) to adjust its concentration to 0.3 U (0.1 U: a concentration at which 1.0 nmol of MCA is released per minute at 37° C.). To 500 μl of this solution, were added 250 μl of an activator/buffer (340 mM sodium acetate, 60 mM acetic acid, 4 mM disodium EDTA; pH 5.5). After the mixture was incubated for 1 minute at 30° C., the sample solution of the predetermined concentration and […] of a substrate solution were added to conduct a reaction for 10 minutes.

[2] = target: T2, cathepsin H (Homo sapiens, UniProt P09668); assay: Determination of inhibition rate against cathepsin H; conditions: purified cathepsin H (Sigma Co.); substrate Arg-MCA; pH 5.5; 30° C; 10 minutes
T2 construct: purchased Sigma Co
T2 sequence (P09668 98-335): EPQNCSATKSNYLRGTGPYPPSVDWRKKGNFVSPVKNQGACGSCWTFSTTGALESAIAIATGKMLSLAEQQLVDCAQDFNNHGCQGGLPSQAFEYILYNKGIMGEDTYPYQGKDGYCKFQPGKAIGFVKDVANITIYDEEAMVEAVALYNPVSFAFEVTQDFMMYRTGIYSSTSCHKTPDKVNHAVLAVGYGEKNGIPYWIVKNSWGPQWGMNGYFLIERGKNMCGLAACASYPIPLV
Procedure: Determination of inhibition rate against cathepsin L, B and H
A purified product was purchased from Sigma Co. and used as cathepsin H, and as a substrate thereof, Arg-MCA was used.
as §2

[3] = target: T3, cathepsin L (Rattus norvegicus, UniProt P07154); assay: Determination of inhibition rate against cathepsin L; conditions: for B/L: IC50 against cathepsin B divided by IC50 against cathepsin L; for IC50: cathepsin L from rat liver, substrate Z-Phe-Arg-MCA, pH 5.5, 30° C, 10 minutes
T3 construct: extracted from a rat liver and completely purified; from tissue; host or cells: rat liver
Procedure: as §1, §2

T3 sequence (P07154 114-288 limits assumed): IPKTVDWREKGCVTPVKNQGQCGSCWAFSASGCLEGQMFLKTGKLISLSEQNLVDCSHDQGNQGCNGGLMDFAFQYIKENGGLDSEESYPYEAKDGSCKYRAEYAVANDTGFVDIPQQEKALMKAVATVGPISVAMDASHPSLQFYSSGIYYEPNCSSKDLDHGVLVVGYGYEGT
T3 sequence (P07154 291-334 limits assumed): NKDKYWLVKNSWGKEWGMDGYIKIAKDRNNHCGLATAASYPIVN
T1 sequence (P00787 129-333 limits assumed): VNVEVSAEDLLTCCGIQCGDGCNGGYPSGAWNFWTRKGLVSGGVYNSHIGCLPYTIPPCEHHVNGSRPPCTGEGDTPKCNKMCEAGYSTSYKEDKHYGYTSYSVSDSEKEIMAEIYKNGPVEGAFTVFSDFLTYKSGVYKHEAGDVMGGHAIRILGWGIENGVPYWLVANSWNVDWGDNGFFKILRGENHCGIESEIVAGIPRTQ
T1 sequence (P00787 80-126 limits assumed): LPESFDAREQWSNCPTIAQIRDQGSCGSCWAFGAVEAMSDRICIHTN

## NCCCC[C@H](NC(=O)[C@H]1O[C@@H]1C(=O)N[C@@H](Cc1ccccc1)C(N)=O)C(=O)Nc1cccc2ccccc12 [Example 14, Nα-{L-3-trans-[(S)-1-carbamoyl-2-phenylethylcarbamoyl]oxirane-2-carbonyl}-L-lysine-1-naphthylamide hydrochloride]
[1]
  IC50: > 10000 nM
[2]
  IC50: > 10000 nM
[3]
  B/L: > 667
  IC50: 15 nM

## CC(=O)NCCCC[C@H](NC(=O)[C@H]1O[C@@H]1C(=O)N[C@@H](Cc1ccccc1)C(=O)NCCc1ccccc1)C(=O)Nc1cccc2ccccc12 [Example 32, Nα-{L-3-trans-[(S)-1-(2-phenylethylcarbamoyl)-2-phenylethylcarbamoyl]oxirane-2-carbonyl}-Nε-acetyl-L-lysine-1-naphthylamide]
[1]
  IC50: 7000 nM
[2]
  IC50: 4800 nM
[3]
  B/L: 17500
  IC50: 0.04 nM

## NCCCCCCCCNC(=O)[C@H](Cc1ccccc1)NC(=O)[C@H]1O[C@@H]1C(=O)O [Preparation Example 61, N-{N-[(2S,3S)-3-trans-Carboxyoxirane-2-carbonyl]-L-phenylalanyl}-1,8-diaminooctane, reference compound]
[1]
  IC50: 23 nM
[3]
  B/L: 28.4
  IC50: 0.81 nM

## NCCCC[C@H](NC(=O)[C@H]1O[C@@H]1C(=O)N[C@@H](Cc1ccccc1)C(=O)NCCc1ccccc1)C(=O)Nc1ccccc1 [Example 35, Nα-{L-3-trans-[(S)-1-(2-phenylethylcarbamoyl)-2-phenylethylcarbamoyl]oxirane-2-carbonyl}-L-lysine anilide hydrochloride]
[1]
  IC50: 11000 nM
[3]
  B/L: 6470
  IC50: 1.7 nM

## CCCNC(=O)[C@H](Cc1ccccc1)NC(=O)[C@H]1O[C@@H]1C(=O)N[C@@H](CCCCN)C(=O)Nc1cccc2ccccc12 [Example 51, Nα-{L-3-trans-[(S)-1-propylcarbamoyl-2-phenylethylcarbamoyl]oxirane-2-carbonyl-L-lysine-1-naphthylamide hydrochloride]
[1]
  IC50: 8500 nM
[3]
  B/L: > 85000
  IC50: < 0.1 nM

## NCCCC[C@H](NC(=O)[C@H]1O[C@@H]1C(=O)N[C@@H](Cc1ccccc1)C(N)=O)C(=O)N1CCc2ccccc21 [Example 45, Nα-{L-3-trans-[(S)-1-carbamoyl-2-phenylethylcarbamoyl]oxirane-2-carbonyl}-L-lysine indolinylamide hydrochloride]
[1]
  IC50: 40000 nM
[3]
  B/L: 571
  IC50: 70 nM

## NCCCC[C@H](NC(=O)[C@H]1O[C@@H]1C(=O)NCCc1ccccc1)C(=O)Nc1cccc2ccccc12 [Example 2, Nα-[L-3-trans-(2-phenylethylcarbamoyl)oxirane-2-carbonyl]-L-lysine-1-naphthylamide hydrochloride]
[1]
  IC50: > 10000 nM
[2]
  IC50: > 10000 nM
[3]
  B/L: > 285
  IC50: 35 nM

## NCCCC[C@H](NC(=O)[C@H]1O[C@@H]1C(=O)N[C@@H](Cc1ccccc1)C(=O)NCc1ccccc1)C(=O)Nc1cccc2ccccc12 [Example 26, Nα-{L-3-trans-[(S)-1-benzylcarbamoyl-2-phenylethylcarbamoyl]oxirane-2-carbonyl}-L-lysine-1-naphthylamide hydrochloride]
[1]
  IC50: 3000 nM
[2]
  IC50: 3200 nM
[3]
  B/L: 7500
  IC50: 0.4 nM

## CNC(=O)[C@H](Cc1ccccc1)NC(=O)[C@H]1O[C@@H]1C(=O)N[C@@H](CCCCN)C(=O)Nc1ccccc1 [Example 63, Nα-{L-3-trans-[(S)-1-methylcarbamoyl-2-phenylethylcarbamoyl]oxirane-2-carbonyl}-L-lysine anilide hydrochloride]
[1]
  IC50: > 10000 nM
[3]
  B/L: 1923
  IC50: 5.2 nM

## NCCCC[C@H](NC(=O)[C@H]1O[C@@H]1C(=O)N[C@@H](Cc1ccccc1)C(=O)NCCc1ccccc1)C(=O)Nc1ccccc1C(F)(F)F [Example 43, Nα-{L-3-trans-[(S)-1-(2-phenylethylcarbamoyl)-2-phenylethylcarbamoyl]oxirane-2-carbonyl)-L-lysine-2-trifluoromethylanilide hydrochloride]
[1]
  IC50: 90000 nM
[3]
  B/L: 30000
  IC50: 3 nM

## NCCCC[C@H](NC(=O)[C@H]1O[C@@H]1C(=O)Nc1cccc2ccccc12)C(=O)Nc1cccc2ccccc12 [Example 30, Nα-[L-3-trans-(1-naphthylcarbamoyl)oxirane-2-carbonyl]-L-lysine-1-naphthylamide hydrochloride]
[1]
  IC50: 6800 nM
[2]
  IC50: 6000 nM
[3]
  B/L: 94.4
  IC50: 72 nM

## CN(C)C(=O)[C@H](Cc1ccccc1)NC(=O)[C@H]1O[C@@H]1C(=O)N[C@@H](CCCCN)C(=O)Nc1ccccc1 [Example 65, Nα-{L-3-trans-[(S)-1-dimethylcarbamoyl-2-phenylethylcarbamoyl]oxirane-2-carbonyl}-L-lysine anilide hydrochloride]
[1]
  IC50: > 10000 nM
[3]
  B/L: > 333
  IC50: 30 nM

## NCCCC[C@H](NC(=O)[C@H]1O[C@@H]1C(=O)N[C@@H](Cc1ccccc1)C(=O)NCCc1ccccc1)C(=O)N1CCc2ccccc21 [Example 47, Nα-{L-3-trans-[(S)-1-(2-phenylethylcarbamoyl)-2-phenylethylcarbamoyl]oxirane-2-carbonyl}-L-lysine indolinylamide hydrochloride]
[1]
  IC50: 15000 nM
[3]
  B/L: 150000
  IC50: 0.1 nM

## NCCCC[C@H](NC(=O)[C@H]1O[C@@H]1C(=O)N[C@@H](Cc1ccccc1)C(N)=O)C(=O)Nc1ccc(Cl)c2ccccc12 [Example 48, Nα-{L-3-trans-[(S)-1-carbamoyl-2-phenylethylcarbamoyl]oxirane-2-carbonyl}-L-lysine-1-(4-chloronaphthyl)amide hydrochloride]
[1]
  IC50: 3100 nM
[3]
  B/L: 7045

## NCCCC[C@H](NC(=O)[C@H]1O[C@@H]1C(=O)N[C@H](Cc1ccccc1)C(=O)NCCc1ccccc1)C(=O)Nc1cccc2ccccc12 [Example 53, Nα-{L-3-trans-[(R)-1-(2-phenylethylcarbamoyl)-2-phenylethylcarbamoyl]oxirane-2-carbonyl}-L-lysine-1-naphthylamide hydrochloride]
[1]
  IC50: 30000 nM
[3]
  B/L: 333
  IC50: 90 nM

## NCCCC[C@H](NC(=O)[C@H]1O[C@@H]1C(=O)N[C@@H](Cc1ccccc1)C(=O)Nc1ccccc1)C(=O)Nc1cccc2ccccc12 [Example 57, Nα-{L-3-trans-[(S)-1-phenylcarbamoyl-2-phenylethylcarbamoyl]oxirane-2-carbonyl}-L-lysine-1-naphthylamide hydrochloride]
[1]
  IC50: > 10000 nM
[3]
  B/L: > 11111
  IC50: 9 nM

## NCCCC[C@H](NC(=O)[C@H]1O[C@@H]1C(=O)N[C@@H](Cc1ccccc1)C(=O)NCCc1ccccc1)C(=O)Nc1cccc2ccccc12 [Example 24, Nα-{L-3-trans-[(S)-1-(2-phenylethylcarbamoyl)-2-phenylethylcarbamoyl]oxirane-2-carbonyl}-L-lysine-1-naphthylamide hydrochloride]
[1]
  IC50: 2100 nM
[3]
  B/L: 70000
  IC50: 0.03 nM

## COc1ccccc1NC(=O)[C@H](CCCCN)NC(=O)[C@H]1O[C@@H]1C(=O)N[C@@H](Cc1ccccc1)C(=O)NCCc1ccccc1 [Example 39, Nα-{L-3-trans-[(S)-1-(2-phenylethylcarbamoyl)-2-phenylethylcarbamoyl]oxirane-2-carbonyl}-L-lysine-2-methoxyanilide hydrochloride]
[1]
  IC50: 12000 nM
[3]
  B/L: 7500
  IC50: 1.6 nM

## COc1ccccc1NC(=O)[C@H](CCCCN)NC(=O)[C@H]1O[C@@H]1C(=O)N[C@@H](Cc1ccccc1)C(N)=O [Example 37, Nα-{L-3-trans-[(S)-1-carbamoyl-2-phenylethylcarbamoyl]oxirane-2-carbonyl}-L-lysine-2-methoxyanilide hydrochloride]
[1]
  IC50: 25000 nM
[3]
  B/L: 3906
  IC50: 6.4 nM
